Consider 1 molecule from patent US7109246B1, “Pharmaceutical compositions comprising an amphoteric surfactant an alkoxylated cetyl alcohol and a polar drug” (Hewlett Healthcare Ltd, priority 1998, dated 2006).

Like-named read-outs stand apart in the source and are kept apart here.

The nature of data set [1]: Bioavailability and pharmacokinetics of sodium cromoglycate from the literature. The class given is in vivo, human. To be noted: oral, maximum administered dose of 2800 mg in a 70 kg person.
Method: Urinary levels over time are probably a better measure of bioavailability.
Thus the maximum administered topical daily dose is expected to be 800 mg.
For data set [2] the following is noted: cited from earlier work.
For data set [3] the following is noted: radioimmunoassay after applying an aqueous solution to skin; cited from earlier work.
The conditions of data set [4]: cited from earlier work. This is another data set of the same source.
Data set [5] has as its system antigen induced wheal and flare reaction in the skin. The following applies: cited from earlier work.

In data set [1], `O=C([O-])c1cc(=O)c2c(OCC(O)COc3cccc4oc(C(=O)[O-])cc(=O)c34)cccc2o1.[Na+].[Na+]` [sodium cromoglycate, disodium 5,5′-[(2-hydroxytrimethylene)dioxy]bis-[4-oxo-4H-1-benzopyran-2-carboxylate]] registered an absorbed dose of 28 mg. Moreover, the metabolism result in data set [2] (in vivo) is listed as “not metabolised”. In data set [2] (in vivo), the “removal from the blood” value is on record as “rapidly removed”. Besides, the bioavailability (usually the share of a dose that reaches the circulation, judged against a reference dose that is usually intravenous) in data set [2] (oral, food allergy) is given as 1%. Besides, the “sodium cromoglycate in the blood” value in data set [3] was “unable to detect”. The main adverse effects entry in data set [4] (clinical practice, generally transient) is “headache, dizziness, local irritation of the target organ and an unpleasant taste in the mouth”. For the same molecule, the adverse effects entry in data set [4] (eye drops) was “burning and stinging”; in data set [4] (intra-nasal administration), “epistaxis”; in data set [4] (oral administration) it was “nausea, skin rash and joint pain”. In data set [5] (3 days pretreatment versus single dose immediately preceding skin prick testing), the “dependence of effect on pretreatment” value is reported as “significant effect is observed only after pretreatment”. Moreover, the “effect on antigen induced wheal and flare reaction” value in data set [5] (topical, human subjects) was “inhibits”.
